We go through five molecules from ChEMBL document CHEMBL5241112, “Insights into the recent progress in the medicinal chemistry of pyranopyrimidine analogs” (RSC Med Chem, 2022).

Assay [1] relates to Klebsiella pneumoniae. As to the kind of experiment: Antibacterial activity against Klebsiella pneumoniae MGH 78578 assessed as diameter of inhibition zone at 50 mg/ml incubated for 24 hrs by paper disk diffusion method. The format is functional. Particulars: read-out: DIZ. Background: A growth-free zone around the sample is the usual read-out of agar diffusion tests.
Assay [2] relates to Escherichia coli. As to the kind of experiment: Antibacterial activity against Escherichia coli ATCC 25922 assessed as diameter of inhibition zone at 50 mg/ml incubated for 24 hrs by paper disk diffusion method. The following applies: read-out: DIZ. It is filed as functional.
Assay [3] deals with Streptococcus pneumoniae. Nature of the assay: Antibacterial activity against Streptococcus pneumoniae ATCC BAA-255/R6 assessed as inhibition of bacterial growth incubated for 24 hrs by disk diffusion method. It is filed as functional.
The test system of assay [4] is Staphylococcus aureus. Nature of the assay: Antibacterial activity against Staphylococcus aureus assessed as diameter of inhibition zone at 100 ug/ml by disc diffusion method. The format is functional. The following applies: read-out: DIZ.
For assay [5], the system named is Pseudomonas aeruginosa. Nature of the assay: Antibacterial activity against Pseudomonas aeruginosa MTCC 741 assessed as diameter of inhibition zone at 0.1 mg/ml incubated for 24 hrs by agar well diffusion method. Particulars: read-out: DIZ. It is filed as functional.
Assay [6] has as its system Bacillus subtilis. As to the kind of experiment: Antibacterial activity against Bacillus subtilis assessed as diameter of inhibition zone at 100 ug/ml by disc diffusion method. The format is functional. Particulars: read-out: DIZ.
The test system of assay [7] is Aspergillus fumigatus. As to the kind of experiment: Antifungal activity against Aspergillus fumigatus ATCC204305 assessed as inhibition of […] growth incubated for 24 hrs by disk diffusion method. The format is functional.
The subject of assay [8] is Escherichia coli. Nature of the assay: Antibacterial activity against Escherichia coli MTCC 723 assessed as diameter of inhibition zone at 0.1 mg/ml incubated for 24 hrs by agar well diffusion method. The format is functional. The following applies: read-out: DIZ.
In assay [9] the test system is Escherichia coli. As to the kind of experiment: Antibacterial activity against Escherichia coli assessed as diameter of inhibition zone at 100 ug/ml by disc diffusion method. The format is functional. The following applies: read-out: DIZ.
In assay [10] the test system is Klebsiella pneumoniae. Nature of the assay: Antibacterial activity against Klebsiella pneumoniae assessed as diameter of inhibition zone at 100 ug/ml by disc diffusion method. The format is functional. Particulars: read-out: DIZ.
In assay [11] the test system is Staphylococcus aureus. As to the kind of experiment: Antibacterial activity against Staphylococcus aureus MTCC 87 assessed as diameter of inhibition zone at 0.1 mg/ml incubated for 24 hrs by agar well diffusion method. It is filed as functional. The following applies: read-out: DIZ.
Assay [12] has as its system Klebsiella pneumoniae. Nature of the assay: Antibacterial activity against Klebsiella pneumoniae MTCC 109 assessed as diameter of inhibition zone at 0.1 mg/ml incubated for 24 hrs by agar well diffusion method. The following applies: read-out: DIZ. It is filed as functional.
The subject of assay [13] is Staphylococcus aureus. Nature of the assay: Antibacterial activity against Staphylococcus aureus ATCC6538-P assessed as inhibition of bacterial growth incubated for 24 hrs by disk diffusion method. It is filed as functional.
In assay [14] the test system is Human alphaherpesvirus 1. As to the kind of experiment: Antiviral activity against HSV-1 assessed as inhibition of viral replication at 20 ug. The format is functional. Further details: scale not given: the % may be the effect or the level left. The following applies: dose 20 µg.
In assay [15] the test system is Human alphaherpesvirus 1. As to the kind of experiment: Antiviral activity against HSV-1 assessed as inhibition of viral replication at 40 ug. It is filed as functional. Further details: scale not given: the % may be the effect or the level left. Particulars: dose 40 µg.
The test system of assay [16] is Aspergillus fumigatus. As to the kind of experiment: microbe, parasite or virus in culture. It is filed as functional. Particulars: ATCC204305, dose 50 mg/ml, time 24 hrs, read-out: DIZ.
Assay [17] has as its system Staphylococcus epidermidis. As to the kind of experiment: Antibacterial activity against Staphylococcus epidermidis ATCC12228 assessed as inhibition of bacterial growth incubated for 24 hrs by disk diffusion method. It is filed as functional.
Assay [18] concerns Penicillium italicum. As to the kind of experiment: microbe, parasite or virus in culture. The following applies: CECT 2294, dose 50 mg/ml, time 24 hrs, read-out: DIZ. It is filed as functional.
The target in assay [19] is DNA gyrase (Escherichia coli, UniProt P0AES4+P0AES6). Nature of the assay: Inhibition of Escherichia coli DNA gyrase. It is filed as protein-complex assay.
A short description of assay [20]: Inhibition of Escherichia coli topoisomerase 4 assessed as reduction in decatenation.
The test system of assay [21] is Staphylococcus aureus. As to the kind of experiment: Antibacterial activity against Staphylococcus aureus assessed as diameter of inhibition zone by disc diffusion method. It is filed as functional.
The test system of assay [22] is Serratia marcescens. Nature of the assay: Antibacterial activity against Serratia marcescens assessed as diameter of inhibition zone by disc diffusion method. The format is functional.
Assay [23] relates to Penicillium chrysogenum. As to the kind of experiment: Antifungal activity against Penicillium chrysogenum assessed as diameter of inhibition zone by disc diffusion method. The format is functional.
Assay [24] concerns Aspergillus ochraceus. As to the kind of experiment: Antifungal activity against Aspergillus ochraceus assessed as diameter of inhibition zone by disc diffusion method. The format is functional.
Assay [25] relates to Plasmodium falciparum. Nature of the assay: microbe, parasite or virus in culture.
Assay [26] concerns Escherichia coli. Nature of the assay: Antibacterial activity against Escherichia coli MTCC 443 assessed as bacterial growth inhibition by broth microdilution method. It is filed as functional. For orientation: Broth dilution looks for growth in wells or tubes with falling amounts of substance.
For assay [27], the system named is Mycobacterium tuberculosis. Nature of the assay: Antitubercular activity against Mycobacterium tuberculosis H37Rv assessed as bacterial growth inhibition at 100 ug/ml. The format is functional.
For assay [28], the system named is Mycobacterium tuberculosis. Nature of the assay: Antitubercular activity against Mycobacterium tuberculosis H37Rv assessed as bacterial growth inhibition at 250 ug/ml. The format is functional.
Assay [29] has as its system Mycobacterium tuberculosis. Nature of the assay: Antimicrobial activity against Mycobacterium tuberculosis H37Rv assessed reduction bacterial growth at 100 ug/ml incubated for 24 hrs by Lowensteine-Jensen method. The format is functional. Further details: scale not given: the % may be the effect or the level left. The following applies: dose 100 µg/ml.

Values after ≈ are worked out from the molar mass of the structure shown.

For orientation: MIC means the least concentration at which growth counts as inhibited. On to `CC1(C)S[C@@H]2[C@H](NC(=O)[C@H](N)c3ccc(O)cc3)C(=O)N2[C@H]1C(=O)O` [AMOXICILLIN], for which the zone of inhibition at 50000 µg/mL worked out at 15 mm in assay [1] and 24 mm in assay [2]. The MIC in [3] amounted to 7.8 µg/mL (≈ 21.3 µM); in assay [7], 15.6 µg/mL (≈ 42.7 µM); in [13], 31.3 µg/mL (≈ 85.7 µM). In addition, the zone of inhibition at 100 µg/mL in assay [4] was found to be 17.5 mm; in [5], 15 mm; in assay [6], 15.5 mm; in assay [8], 14.9 mm; in assay [9], 19.5 mm; in [10], 18 mm. Further, the zone of inhibition at 100 µg/mL was 13.8 mm in assay [11] and 13.6 mm in assay [12].
For `Cc1nc2c(c(=O)[nH]1)C(c1ccc([N+](=O)[O-])cc1)c1c(n[nH]c1C)O2` (configuration not stated), the results for the Activity in assay [14] and in assay [15] were 63% and 95%, respectively.
Usually IC50 stands for the concentration that inhibits the measured activity by half. Take `Nc1nc(=S)[nH]c2c1C(c1ccc(Cl)cc1)C=C(c1cc3ccccc3oc1=O)O2` (configuration not stated): the zone of inhibition at 50000 µg/mL in assay [16] came to 10 mm; in assay [1], 12 mm; in assay [2], 10 mm; in assay [18] it was 16 mm. In addition, the MIC worked out at 15.3 µg/mL (≈ 35.1 µM) in assay [17] and 15.5 µg/mL (≈ 35.6 µM) in assay [7]. In addition, the values for the IC50 in assay [19] and in assay [20] were 4.91 nM and 341 nM, respectively.
Regarding `N#CCc1nc2c3c(ncn2n1)Oc1ccc2cc(Br)ccc2c1C3`, the “diameter of the inhibition zone (DIZ)” value is on record as 25 mm in [21], 23 mm in [22], 13 mm in [23] and 17 mm in assay [24].
One may read the inhibition as the drop in the measured response relative to a control, in per cent. In assay [25], `CCOC(=O)C1=C(N)Oc2[nH]c(=O)[nH]c(=O)c2C1c1c(C)nn(-c2ccccc2)c1-n1ccnc1` (configuration not stated) came in with an IC50 of 0.97 µg/mL (≈ 2.04 µM). Further, in assay [26], the MIC is 100 µg/mL (≈ 210 µM). For the same molecule, the inhibition at 100 µg/mL in assay [27] turned out to be 30%. Also, in assay [28], the inhibition at 250 µg/mL was found to be 37%. The molecule further had an Activity in [29] of 92%.
